Data as given in PMC7382816 (BMC Pharmacology & Toxicology, 2020).
Like-named read-outs stand apart in the source and are kept apart here.

Experiment: Single-dose pharmacokinetics in healthy volunteers under fasting and fed (high-fat breakfast) conditions, plasma concentrations by HPLC-MS, non-compartmental analysis
Format: in vivo, human
Parameters: Ke: unit not given here
Text: The bioequivalence clinical trials were phase I, randomized, open-label, crossover, single-centre, with two periods separated by a 7-day washout stage. Subjects were randomised to one of the two treatment sequences, RT or TR where R was the reference formulation and T was the test formulation. Each of the clinical trial was crossover for evaluation of a test formulation compared to a reference formulation either under fed or fasting conditions. […] The treatments were allocated in a balanced manner on every inclusion day (blocks of 4 subjects). Our study adheres to CONSORT guidelines. […] Sample processing, genotyping for CYP2C19 and drug quantification were performed according to Román et al. […] Pharmacokinetic parameters were estimated from the plasma concentration–time data by non-compartmental analysis (WinNonlin Professional, version 2.0., Pharsight Corporation, USA) as reported by Román et al. […] WinNonLin Professional software version 2.0 was used for the statistical analysis. Pharmacokinetic parameters were log-transformed, and AUC and Cmax were adjusted for dose and weight. The values of pharmacokinetic parameters were expressed as mean ± standard deviation.

[1] = Fast, men, single oral dose, mean ± SD
[2] = both sexes, human, plasma, oral, only CYP2C19*1/*1 subjects, Fast, men and women, mean ± SD
[3] = both sexes, human, plasma, oral, only CYP2C19*1/*1 subjects, Fed, men and women, mean ± SD
[4] = both sexes, human, plasma, po, Fast, all subjects, single oral dose, mean ± SD
[5] = both sexes, human, plasma, po, Fed (high-fat breakfast), all subjects, single oral dose, mean ± SD
[6] = female, human, plasma, oral, only CYP2C19*1/*1 subjects, Fast, women, mean ± SD
[7] = female, human, plasma, oral, only CYP2C19*1/*1 subjects, Fed, women, mean ± SD
[8] = female, human, plasma, po, Fast, women, single oral dose, mean ± SD
[9] = female, human, plasma, po, Fed, women, single oral dose, mean ± SD
[10] = male, human, plasma, oral, only CYP2C19*1/*1 subjects, Fast, men, mean ± SD
[11] = male, human, plasma, oral, only CYP2C19*1/*1 subjects, Fed, men, mean ± SD
[12] = male, human, plasma, po, Fast, men, single oral dose, mean ± SD
[13] = male, human, plasma, po, Fed, men, single oral dose, mean ± SD
[14] = only CYP2C19*1/*1 subjects, Fast, men, mean ± SD
[15] = only CYP2C19*1/*1 subjects, Fast, women, mean ± SD
[16] = only CYP2C19*1/*1 subjects, Fed, men and women, mean ± SD
[17] = only CYP2C19*1/*1 subjects, Fed, men, mean ± SD

Ke (Fast, all subjects, single oral dose, mean ± SD): 0.76 ± 0.29
Cmax [1]: 858.8 ± 432.6 ng/mL
Ke [1]: 0.70 ± 0.29
Ke (Fast, women, single oral dose, mean ± SD): 0.82 ± 0.29
Ke (Fed (high-fat breakfast), all subjects, single oral dose, mean ± SD): 0.67 ± 0.32
Ke (Fed, men, single oral dose, mean ± SD): 0.69 ± 0.35
Ke (Fed, women, single oral dose, mean ± SD): 0.65 ± 0.30
AUC(0-inf) [2]: 1710 ± 1300 ng·h/mL
CL/F [2]: 9.5 mL/min/kg
Vd/F [2]: 0.69 ± 0.38 L/kg
half-life [2]: 60 ± 24 min
Cmax (both sexes, human, plasma, oral, only CYP2C19*1/*1 subjects, Fast, men and women, mean ± SD, read-out: Cmax): 860 ± 395 ng/mL
Tmax (both sexes, human, plasma, oral, only CYP2C19*1/*1 subjects, Fast, men and women, mean ± SD, read-out: Tmax): 1.8 ± 0.6 h
AUC(0-inf) [3]: 1520 ± 1290 ng·h/mL
CL/F [3]: 10.3 mL/min/kg
Vd/F [3]: 0.77 ± 0.43 L/kg
half-life [3]: 60 ± 24 min
Cmax (both sexes, human, plasma, oral, only CYP2C19*1/*1 subjects, Fed, men and women, mean ± SD, read-out: Cmax): 604 ± 363 ng/mL
Tmax (both sexes, human, plasma, oral, only CYP2C19*1/*1 subjects, Fed, men and women, mean ± SD, read-out: Tmax): 4.9 h
Tmax (both sexes, human, plasma, oral, under fasting conditions, range among subjects, read-out: Tmax range): 1 to 3.5 h
Tmax (both sexes, human, plasma, oral, under fed conditions, range among subjects, read-out: Tmax range): 1 to 17 h
AUC(0-inf) [4]: 2190 ± 2010 ng·h/mL
CL/F [4]: 8.83 mL/min/kg
Vd/F [4]: 0.64 ± 0.34 L/kg
Cmax (both sexes, human, plasma, po, Fast, all subjects, single oral dose, mean ± SD, read-out: Cmax): 931 ± 435 ng/mL
Tmax (both sexes, human, plasma, po, Fast, all subjects, single oral dose, mean ± SD, read-out: Tmax): 2 ± 0.7 h
AUC(0-inf) [5]: 1930 ± 1880 ng·h/mL
CL/F [5]: 10.7 mL/min/kg
Vd/F [5]: 1.02 ± 1.07 L/kg
Cmax (both sexes, human, plasma, po, Fed (high-fat breakfast), all subjects, single oral dose, mean ± SD, read-out: Cmax): 683 ± 394 ng/mL
Tmax (both sexes, human, plasma, po, Fed (high-fat breakfast), all subjects, single oral dose, mean ± SD, read-out: Tmax): 4.9 ± 1.1 h
AUC lower under fed conditions (fed vs fasting, all subjects): 12%
Cmax lower under fed conditions (fed vs fasting, all subjects): 27%
Delay of mean Tmax (absorption) by food (fed vs fasting, all subjects): about 3 h
half-life higher under fed conditions (fed vs fasting, all subjects): 15%
Delay of Tmax by food (fed vs fasting, only subjects with CYP2C19*1/*1): 3 h
AUC(0-inf) [6]: 1980 ± 1220 ng·h/mL
CL/F [6]: 8.83 mL/min/kg
Vd/F [6]: 0.69 ± 0.46 L/kg
half-life [6]: 60 ± 18 min
AUC(0-inf) [7]: 1710 ± 1250 ng·h/mL
CL/F [7]: 9.5 mL/min/kg
Vd/F [7]: 0.84 ± 0.54 L/kg
Cmax (female, human, plasma, oral, only CYP2C19*1/*1 subjects, Fed, women, mean ± SD, read-out: Cmax): 640 ± 275 ng/mL
Tmax (female, human, plasma, oral, only CYP2C19*1/*1 subjects, Fed, women, mean ± SD, read-out: Tmax): 5.4 ± 0.4 h
AUC(0-inf) [8]: 2020 ± 1500 ng·h/mL
CL/F [8]: 9.33 mL/min/kg
Vd/F [8]: 0.63 ± 0.31 L/kg
half-life [8]: 60 ± 24 min
Cmax (female, human, plasma, po, Fast, women, single oral dose, mean ± SD, read-out: Cmax): 999 ± 438 ng/mL
Tmax (female, human, plasma, po, Fast, women, single oral dose, mean ± SD, read-out: Tmax): 1.9 ± 0.6 h
AUC(0-inf) [9]: 1720 ± 1400 ng·h/mL
CL/F [9]: 12.2 mL/min/kg
Vd/F [9]: 1.3 ± 1.38 L/kg
Cmax (female, human, plasma, po, Fed, women, single oral dose, mean ± SD, read-out: Cmax): 640 ± 640 ng/mL
Tmax (female, human, plasma, po, Fed, women, single oral dose, mean ± SD, read-out: Tmax): 5.4 ± 1 h
AUC(0-inf) [10]: 1470 ± 1400 ng·h/mL
CL/F [10]: 10.3 mL/min/kg
Vd/F [10]: 0.68 ± 0.46 L/kg
Cmax (male, human, plasma, oral, only CYP2C19*1/*1 subjects, Fast, men, mean ± SD, read-out: Cmax): 654 ± 306 ng/mL
AUC(0-inf) [11]: 1410 ± 1160 ng·h/mL
CL/F [11]: 10.5 mL/min/kg
Vd/F [11]: 0.73 ± 0.38 L/kg
half-life [11]: 60 ± 24 min
Tmax (male, human, plasma, oral, only CYP2C19*1/*1 subjects, Fed, men, mean ± SD, read-out: Tmax): 4.3 ± 1 h
AUC(0-inf) [12]: 2380 ± 2480 ng·h/mL
CL/F [12]: 8.33 mL/min/kg
Vd/F [12]: 0.65 ± 0.38 L/kg
Tmax (male, human, plasma, po, Fast, men, single oral dose, mean ± SD, read-out: Tmax): 2.1 ± 0.7 h
AUC(0-inf) [13]: 2140 ± 2280 ng·h/mL
CL/F [13]: 9.5 mL/min/kg
Vd/F [13]: 0.75 ± 0.52 L/kg
Cmax (male, human, plasma, po, Fed, men, single oral dose, mean ± SD, read-out: Cmax): 725 ± 448 ng/mL
Tmax (male, human, plasma, po, Fed, men, single oral dose, mean ± SD, read-out: Tmax): 4.5 ± 0.9 h
Ke (only CYP2C19*1/*1 subjects, Fast, men and women, mean ± SD): 0.81 ± 0.23
Ke [14]: 0.82 ± 0.25
Tmax [14]: 2.0 ± 0.7 h
Cmax [15]: 1094.3 ± 366.6 ng/mL
Ke [15]: 0.79 ± 0.23
Ke [16]: 0.80 ± 0.36
Tmax [16]: 4.7 ± 1.0 h
Cmax [17]: 582.8 ± 419.1 ng/mL
Ke [17]: 0.84 ± 0.39
Ke (only CYP2C19*1/*1 subjects, Fed, women, mean ± SD): 0.72 ± 0.32
Compound: COc1ccc2[nH]c([S+]([O-])Cc3ncc(C)c(OC)c3C)nc2c1 (stereo not drawn) [Omeprazole, omeprazole]
